Holding throughout (assay): Bliss excess, mean over the matrix (fraction); higher = more synergy
For one assay, the system named is PA-1 (Ovarian Carcinoma). In short, it runs like this:
(§1)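 Cell lines in DMEM/F12 or RPMI with 10% FBS were plated in 1536-well plates, held 24 hours at 37°C, 5% CO2, then given two-drug dose matrices for 72 hours (DMSO typically 0.2%). Viability was read by CellTiter-Glo 2.0 luminescence and scaled as inhibition from 0 (vehicle wells) to 1 (blank wells). Combination Emax is the second-highest inhibition in the matrix; Bliss excess is observed combination effect minus expected EA + EB − EA·EB, EA and EB being single-agent effects.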

Assay [1] relates to MDST8 (Colorectal Carcinoma). In short, it runs like this: as §1
Another assay has as its system GI-ME-N (Neuroblastoma). In short, it runs like this: as §1
Assay [2] relates to COLO-824 (Breast Carcinoma). In short, it runs like this:
as §1

Assay [3] deals with NCI-H1581 (Non-Small Cell Lung Carcinoma). In outline: as §1
In assay [4] the test system is CAPAN-2 (Pancreatic Carcinoma). In outline: as §1

Molecules are shown by their SMILES.

For the compound `Cc1c2c(nn1C)CSCc1cc(n(C)n1)CSc1cc(c3ccccc3c1)OCCCc1c(C(=O)O)n(C)c3c-2c(Cl)ccc13` [AZD5991] + CN(C)CCCOc1ccc(-c2ccc3ncc4c(c3c2)n(C2CCOCC2)c(=O)n4C)cn1 [AZD0156] (first compound max 1 µM, 7x7, partner max 1 µM), the Bliss excess was 0.004 in the assay on PA-1 (Ovarian Carcinoma); 0.0114 in assay [1]; -0.04 with GI-ME-N (Neuroblastoma); -0.004 in assay [2]; 0.0383 in assay [3]; 0.0062 in assay [4].
For `Cc1c2c(nn1C)CSCc1cc(n(C)n1)CSc1cc(c3ccccc3c1)OCCCc1c(C(=O)O)n(C)c3c-2c(Cl)ccc13` [AZD5991] + C[C@@H](Nc1cc(F)cc(F)c1)c1cc(C(=O)N(C)C)cc2c(=O)cc(N3CCOCC3)oc12 [AZD8186] (first compound max 1 µM, 7x7, partner max 3 µM), the Bliss excess in the assay on PA-1 (Ovarian Carcinoma) was 0.049; in assay [1], -0.0268; with GI-ME-N (Neuroblastoma), -0.0631; in assay [2] it was 0.0043; in assay [3], -0.0068; in assay [4] it was 0.023.
As to `Cc1c2c(nn1C)CSCc1cc(n(C)n1)CSc1cc(c3ccccc3c1)OCCCc1c(C(=O)O)n(C)c3c-2c(Cl)ccc13` [AZD5991] + Cc1cc2ncnn2cc1Nc1ncc2c(n1)n(C1CCOCC1)c(=O)n2C [AZD7648] (first compound max 1 µM, 7x7, partner max 10 µM), the Bliss excess in the assay on PA-1 (Ovarian Carcinoma) was -0.0774; in assay [1], -0.0487; with GI-ME-N (Neuroblastoma) it was -0.0863; in assay [2], -0.0187; in assay [3], -0.0026; in assay [4], 0.0141.
`Cc1c2c(nn1C)CSCc1cc(n(C)n1)CSc1cc(c3ccccc3c1)OCCCc1c(C(=O)O)n(C)c3c-2c(Cl)ccc13` [AZD5991] + Cn1cnc2c(F)c(Nc3ccc(Br)cc3Cl)c(C(=O)NOCCO)cc21 [Selumetinib] (first compound max 1 µM, 7x7, partner max 3 µM): the Bliss excess with PA-1 (Ovarian Carcinoma) is 0.0085; in assay [1] it was -0.0014; in the assay with GI-ME-N (Neuroblastoma), -0.06; in assay [2], -0.0049; in assay [3], 0.0803; in assay [4], 0.0129.
As for `C[C@@H]1COCCN1c1cc(C2([S@](C)(=N)=O)CC2)nc(-c2ccnc3[nH]ccc23)n1` [AZD6738] + O=C(c1cc(Cc2n[nH]c(=O)c3ccccc23)ccc1F)N1CCN(C(=O)C2CC2)CC1 [Olaparib] (first compound max 10 µM, 7x7, partner max 10 µM), the Bliss excess with PA-1 (Ovarian Carcinoma) was 0.0046; in assay [1], 0.0052; in the assay with GI-ME-N (Neuroblastoma), -0.0252; in assay [2], -0.0314; in assay [3] it was 0.0166; in assay [4], -0.0255.
`Cc1cc2ncnn2cc1Nc1ncc2c(n1)n(C1CCOCC1)c(=O)n2C` [AZD7648] + C=CCn1c(=O)c2cnc(Nc3ccc(N4CCN(C)CC4)cc3)nc2n1-c1cccc(C(C)(C)O)n1 [AZD1775] (first compound max 10 µM, partner max 1 µM): the Bliss excess was -0.0024 in the assay with PA-1 (Ovarian Carcinoma); 0.0177 in assay [1]; 0.0213 in the assay on GI-ME-N (Neuroblastoma); -0.0448 in assay [2]; -0.0334 in assay [3]; 0.0132 in assay [4].
For `Cc1cc2ncnn2cc1Nc1ncc2c(n1)n(C1CCOCC1)c(=O)n2C` [AZD7648] + CCN(CCO)CCCOc1ccc2c(Nc3cc(CC(=O)Nc4cccc(F)c4)[nH]n3)ncnc2c1 [AZD2811] (first compound max 10 µM, 7x7, partner max 1 µM), the Bliss excess in the assay on PA-1 (Ovarian Carcinoma) was 0.0239; in assay [1], 0.0619; in the assay with GI-ME-N (Neuroblastoma) it was 0.0032; in assay [2], 0.0116; in assay [3] it was 0.0122; in assay [4] it was -0.0525.
Take `Cc1cc2ncnn2cc1Nc1ncc2c(n1)n(C1CCOCC1)c(=O)n2C` [AZD7648] + CN(C)CCCOc1ccc(-c2ccc3ncc4c(c3c2)n(C2CCOCC2)c(=O)n4C)cn1 [AZD0156] (first compound max 10 µM, 7x7, partner max 1 µM): the Bliss excess with PA-1 (Ovarian Carcinoma) is -0.0117; in assay [1], 0.0012; in the assay with GI-ME-N (Neuroblastoma) it was 0.0015; in assay [2], -0.0145; in assay [3] it was 0.0088; in assay [4], -0.0168.
For the compound `Cc1cc2ncnn2cc1Nc1ncc2c(n1)n(C1CCOCC1)c(=O)n2C` [AZD7648] + C[C@@H]1COCCN1C2=NC(=NC(=C2)C3(CC3)[S@](=N)(=O)C)C4=C5C=CNC5=NC=C4 [AZD6738] (first compound max 10 µM, 7x7, partner max 10 µM), the Bliss excess was -0.0509 with PA-1 (Ovarian Carcinoma); -0.0085 in assay [1]; 0.0346 in the assay with GI-ME-N (Neuroblastoma); 0.0794 in assay [2]; 0.0217 in assay [3]; 0.022 in assay [4].
`Cc1cc2ncnn2cc1Nc1ncc2c(n1)n(C1CCOCC1)c(=O)n2C` [AZD7648] + O=C(c1cc(Cc2n[nH]c(=O)c3ccccc23)ccc1F)N1CCN(C(=O)C2CC2)CC1 [Olaparib] (first compound max 10 µM, 7x7, partner max 10 µM): the Bliss excess is -0.0072 in the assay with PA-1 (Ovarian Carcinoma); -0.043 in assay [1]; -0.0382 in the assay on GI-ME-N (Neuroblastoma); -0.0115 in assay [2]; -0.0319 in assay [3]; -0.0757 in assay [4].
Regarding `NC1(C(=O)N[C@@H](CCO)c2ccc(Cl)cc2)CCN(c2ncnc3[nH]ccc23)CC1` [Capivasertib] + CC(=O)c1c(C)c2cnc(Nc3ccc(N4CCNCC4)cn3)nc2n(C2CCCC2)c1=O [Palbociclib] (first compound max 10 µM, 7x7, partner max 10 µM), the Bliss excess in the assay on PA-1 (Ovarian Carcinoma) is 0.0288; in assay [1] it was -0.0378; in the assay on GI-ME-N (Neuroblastoma) it was -0.0823; in assay [2], -0.0495; in assay [3], 0.0213; in assay [4] it was -0.0164.
`NC1(C(=O)N[C@@H](CCO)c2ccc(Cl)cc2)CCN(c2ncnc3[nH]ccc23)CC1` [Capivasertib] + CC(C)n1c(=O)n(C)c2cnc3cc(F)c(-c4ccc(OCCCN5CCCCC5)nc4)cc3c21 [AZD1390] (first compound max 10 µM, 7x7, partner max 0.3 µM): the Bliss excess in the assay on PA-1 (Ovarian Carcinoma) was -0.102; in assay [1], -0.0327; in the assay on GI-ME-N (Neuroblastoma), -0.0993; in assay [2], -0.0137; in assay [3], -0.0784; in assay [4], -0.0651.

Source of the values: the supplement of paper PMC11061612.
